In patent US20210346315A1, “COMPOSITION FOR INHIBITION OR TREATMENT OF BRAIN TUMORS OR SYMPTOMS ATTRIBUTABLE THERETO” (ENEOS Corporation, priority 2018, published 2021):

Key:
[1] = test system: human-derived glioma cell line U251MG; assay: Cell proliferative capacity / cell viability of human-derived glioma cell line U251MG (CCK-8); format: cell-based; details: for cell viability (proliferation) vs the control group: after 96 hours, 0.1, 1.0, 5 or 10 μM
Experimental: (§1) As the glioma cell lines, the mouse-derived glioma cell line GL261 (transferred from Graduate School of Health Sciences, Gunma University) and the human-derived glioma cell line U251MG (DS Pharma Biomedical Co., Ltd.) were used. First, the glioma cell lines were seeded in a 96-well plate (FALCON) at 2,000 cells/well. Using Dulbecco's modified Eagle's medium (DMEM) (Nacalai Tesque, Inc.) containing 10% fetal bovine serum (FBS) (Valeant Pharmaceuticals International, Inc.), 100 U/mL penicillin, and 100 μg/mL streptomycin (Meiji Seika Pharma Co., Ltd.), seeded cells were cultured for 24 hours at 37° C. under 5% CO2. Then, the medium was replaced with DMEM containing 10% FBS so that the concentration was 90 μL/well. After the medium replacement, a test solution was further added according to each test group. Specifically, in the control group, 10 μL of PBS containing 0.1% DMSO (Nacalai Tesque, Inc.) was added (n=6). In the temozolomide group, temozolomide (Tokyo Chemical Industry Co., Ltd.) was dissolved in PBS containing 0.1% DMSO to obtain a temozolomide solution. Then, 10 μL of the temozolomide solution was added so that the final concentration of temozolomide was 300 μM (n=6). In the astaxanthin and adonixanthin groups, astaxanthin or adonixanthin was dissolved in PBS containing 0.1% DMSO to obtain an astaxanthin or adonixanthin solution. Then, 10 μL each of the astaxanthin or adonixanthin solution was added so that the final concentration of astaxanthin or adonixanthin was 0.1, 1.0, 5, or 10 μM (n=6). At 72 hours and 96 hours after addition of each test solution, the viable cell count of GL261 and U251MG was measured using cell counting kit-8 (CCK-8) (DOJINDO LABORATORIES). Specifically, using a microplate reader (Varioscan Flash 2.4, Thermo Fisher Scientific K.K.) at the time of addition and 2 hours after addition of CCK-8, the absorbance was measured at 450 nm, and the viable cell count was measured using the absorbance at 650 nm as a reference. For example, in the case of 72-hour treatment, CCK-8 was added 70 hours after addition of the test solution, and the absorbance was measured. The absorbance was measured again 2 hours after addition of CCK-8. The value obtained by subtracting the absorbance immediately after addition of CCK-8 as the background from the absorbance 2 hours after addition of CCK-8 was used as data. In the same manner as in Test Example 1, effects of adonirubin or zeaxanthin on the cell proliferative capacity after 72 hours of a human- or mouse-derived glioma cell line were investigated. As adonirubin, the adonirubin obtained in Preparation Example 1 was used, and as zeaxanthin, Zeaxanthin (manufacturer code ASB-00026504, ChromaDex Corporation) was used. Specifically, the glioma cell lines were seeded in a 96-well plate at 2,000 cells/well. Using DMEM containing 10% FBS, 100 U/mL penicillin, and 100 μg/mL streptomycin, seeded cells were cultured for 24 hours at 37° C. under 5% CO2. Then, the medium was replaced with DMEM containing 10% FBS so that the concentration was 90 μL/well. After the medium replacement, a test solution was further added according to each test group. Specifically, in the control group, 10 μL of PBS containing 0.1% DMSO (Nacalai Tesque, Inc.) was added (n=6). In the temozolomide group, temozolomide was dissolved in PBS containing 0.1% DMSO to obtain a temozolomide solution. Then, 10 μL of the temozolomide solution was added so that the final concentration of temozolomide was 300 μM (n=6). In the adonirubin and zeaxanthin groups, adonirubin or zeaxanthin was dissolved in PBS containing 0.1% DMSO to obtain an adonirubin or zeaxanthin solution. Then, 10 μL each of the adonirubin or zeaxanthin solution was added so that the final concentration of adonirubin or zeaxanthin was 0.1, 1.0, 5, or 10 μM (n=6). At 72 hours after addition of each test solution, the cell proliferative capacity of GL261 and U251MG was evaluated using CCK-8 in the same manner as in Test Example 1.

[2] = test system: mouse-derived glioma cell line GL261; assay: Cell proliferative capacity / cell viability of mouse-derived glioma cell line GL261 (CCK-8); format: cell-based; details: for average value of cell viability, concentration dependence: 0.1 to 10 μM; for cell viability (proliferation) vs the control group: GL261, after 96 hours, 0.1, 1.0, 5 or 10 μM
Experimental: as §1

[3] = Intracerebral distribution of astaxanthin or adonixanthin in cynomolgus monkey (HPLC of brain organs); format: in vivo; details: 50 mg/kg body weight once daily for 10 days into the stomach, FIG. 5
Experimental: Each of the astaxanthin and the adonixanthin obtained in Preparation Example 1 was weighed, followed by suspension by adding olive oil (product number 150-00276, manufactured by Wako Pure Chemical Industries, Ltd.) to prepare so that each concentration was 10 mg/mL, thus obtaining an astaxanthin dosing solution and an adonixanthin dosing solution. Each dosing solution was prepared at the time of use, and stored on ice and protected from light until administration.
As experimental animals, cynomolgus monkeys were used. […] The dose in each administration was calculated based on the latest body weight at each administration time point (body weight was measured using an electric balance (HP-40K or GP-40K, both of which were manufactured by A&D Company, Limited) on each of the day of initiation of acclimation, the day of end of acclimation, the day of initiation of administration, and before administration on the day 8 of administration). […]
Each of the concentration of adonixanthin in each organ collected from the adonixanthin-administering monkey (concentration relative to the weight of each organ) and the concentration of astaxanthin in each organ collected from the astaxanthin-administering monkey (concentration relative to the weight of each organ) was measured. […]

[4] = after 72 hours, 0.1, 1.0, 5 or 10 μM
[5] = GL261, after 72 hours, all concentrations (0.1, 1.0, 5 or 10 μM)
[6] = GL261, after 72 hours, 10 μM group

| SMILES | cell proliferative capacity vs the control group [1, 4] | cell proliferative capacity vs the control group ([1]; after 72 hours, 1, 5, and 10 μM groups) | cell viability (proliferation) vs the control group ([1]; FIG. 1) | proliferation inhibition compared with the astaxanthin group ([1]; after 96 hours, FIG. 1) | average value of cell viability, concentration dependence ([2]; GL261, after 72 hours) | cell proliferative capacity vs the control group [2, 5] | cell viability (proliferation) vs the control group ([2]; FIG. 2) | proliferation inhibition compared with the astaxanthin group ([2]; GL261, after 96 hours, FIG. 2) | concentration in the brain compared with astaxanthin [3] | concentration in each organ of the brain (transfer into the brain and retention) ([3]; organs collected after blood sampling 4 hours after last administration) | cell proliferative capacity vs the control group [2, 6] | proliferation inhibition compared with the adonirubin group ([1]; after 72 hours) | proliferation inhibition compared with the zeaxanthin group ([2]; GL261, after 72 hours) |
| --- | --- | --- | --- | --- | --- | --- | --- | --- | --- | --- | --- | --- | --- |
| CC1=C(/C=C/C(C)=C/C=C/C(C)=C/C=C/C=C(C)/C=C/C=C(C)/C=C/C2=C(C)C(=O)C(O)CC2(C)C)C(C)(C)CC(O)C1 (stereo not drawn) [adonixanthin, 3,3′-dihydroxy-β,β-carotene-4-one] | tends to be concentration-dependently inhibited | significantly inhibited | significantly inhibited at any concentration | inhibited at a higher level | tends to concentration-dependently decrease | significantly inhibited | significantly inhibited at any concentration | inhibited at a higher level | transferred into the brain at a higher concentration | transferred into the brain at a high concentration | – | – | – |
| CC1=C(/C=C/C(C)=C/C=C/C(C)=C/C=C/C=C(C)/C=C/C=C(C)/C=C/C2=C(C)C(=O)C(O)CC2(C)C)C(C)(C)CC(O)C1=O (stereo not drawn) [astaxanthin, 3,3′-dihydroxy-β,β-carotene-4,4′-dione] | tends to be concentration-dependently inhibited | – | significantly inhibited at any concentration | – | tends to concentration-dependently decrease | – | significantly inhibited at any concentration | – | – | – | significantly inhibited | – | – |
| CC1=C(/C=C/C(C)=C/C=C/C(C)=C/C=C/C=C(C)/C=C/C=C(C)/C=C/C2=C(C)C[C@@H](O)CC2(C)C)C(C)(C)C[C@H](O)C1 [zeaxanthin, β,β-carotene-3,3′-diol] | significantly inhibited at any concentration | – | – | – | – | tends to be inhibited at any concentration | – | – | – | – | significantly inhibited | inhibited at a higher level | – |
| CC1=C(/C=C/C(C)=C/C=C/C(C)=C/C=C/C=C(C)/C=C/C=C(C)/C=C/C2=C(C)C(=O)C(O)CC2(C)C)C(C)(C)CCC1=O (stereo not drawn) [adonirubin, 3-hydroxy-β,β-carotene-4,4′-dione] | tends to be inhibited at any concentration | – | – | – | – | significantly inhibited at any concentration | – | – | – | – | – | – | inhibited at a higher level |
